According to patent publication US20020006661A1, “Controlling gene expression in living cells” (University of Massachusetts, a Massachusetts corporation, priority 1998, published 2002):

Tests used:
[1] = system: H2-RSETA mRNA (H10 and H19 in tandem in the 5′ UTR); assay: Wheat germ in vitro translation of H2-RSETA mRNA; format: biochemical; settings: 0, 40 or 80 μM H33258, wheat germ extract
Protocol: (§1) FIG. 10. is a histogram summarizing SDS-PAGE densitometry data from in vitro translation experiments. RNA transcripts containing 0 (RSETA) or 2 copies of an H33258 aptamer (H2-RSETA) were translated in a wheat germ extract in the presence of ^35S-methionine and 0, 40 or 80 μM H33258. Protein products were subjected to SDS-PAGE and quantitated by densitometry. For each transcript, translation in the absence of drug was set at 100%.
(§2) In vitro transcription reactions contained 5 μg pRSETA (or RSET derivative), 0.5 mM m^7G(5′)G, 0.5 mM ATP, CTP, UTP, 0.05 mM GTP, 10 mM DTT and 40 U T7 RNA polymerase in 50 μl of a solution of 40 mM Tris-HCl pH 7.5, 6 mM MgCl2, 2 mM spermidine, 10 mM NaCl. Following incubation for 1 hour at 37° C., RNA was purified by phenol:chloroform extraction, ethanol precipitation and resuspended in 30 μl H2O. Translation reactions were carried out in 10 μl containing 5 μl wheat germ extract, 0.8 μl 1 mM amino acid mixture (minus methionine), 2 μl of RNA transcript (described above), 0.5 μl [^35S] methionine (1200 Ci/mmole) and 0-80 μM drug. Reactions were incubated at 25{square root} C. for 15 minutes and terminated by addition of 2X sample loading buffer. Translation products were separated by electrophoresis on an 18% polyacrylamide gel, visualized by autoradiography, and quantitated by densitometry.

[2] = cited from earlier work; for Cell permeability: known
[3] = known; cited from earlier work
[4] = system: parental expression vector SVβ Gal in CHO cells; assay: β-galactosidase reporter expression in transfected CHO cells, parental SVβ Gal; format: cell-based; settings: 24 hours, 0, 5 or 10 μM H33342, data not shown
Protocol: (§3) FIG. 11 is a histogram summarizing data from in vivo expression experiments. H33258 aptamers H10 and H19 were cloned in tandem into the 5′ UTR of a β-galactosidase reporter gene (SVβ gal; Promega) to generate SVH2β gal. CHO cells were cotransfected with 1 μg SVβ gal or SVH2β gal and 1 μg of a luciferase expression vector (pGL3). Transfected cells were grown in the presence of […]. Twenty-four hours after transfection, cell extracts were prepared, and β-galactosidase and luciferase activities were determined.
(§4) To test whether this small molecule-aptamer interaction could be used to control gene expression in vivo, one copy of H10 and H19 were inserted into the 5′ UTR of a mammalian β-galactosidase expression plasmid SVβ Gal (Promega), generating the construct SVH2β gal. CHO cells were cotransfected with SVH2β Gal or as a control the parental vector, SVβ Gal, and a luciferase reporter gene to provide an internal control. Following transfection, cells were grown for 24 hours in the presence of 0, 5 or 10 μM H33342 and analyzed for β-galactosidase and luciferase activities.
(§5) H33258 aptamers, H10 and H19, were cloned in tandem into the 5′ UTR of a β-galactosidase reporter gene (SVβ gal, Promega) to generate SVH2β gal. […] 24 hours post-transfection cell extracts were prepared and β-galactosidase and luciferase activities were determined.

[5] = system: luciferase reporter (pGL3) in CHO cells; assay: Luciferase internal control reporter in transfected CHO cells; format: cell-based; settings: 24 hours, 0, 5 or 10 μM H33342
Protocol: as §3, §4, §5

[6] = system: SVH2β Gal (β-galactosidase reporter with H10 and H19 in the 5′ UTR) in CHO cells; assay: β-galactosidase reporter expression in transfected CHO cells, SVH2β gal; format: cell-based; settings: 24 hours, 0, 5 or 10 μM H33342, dose-dependent
Protocol: as §3, §4, §5

[7] = system: E. coli BL-21 cells expressing RSETA, kan or tob aptamers; assay: Growth of E. coli expressing antibiotic aptamers in antibiotic-containing medium; format: cell-based; settings: 10 mM antibiotic, liquid culture; for Growth of bl-kan1 (kanamycin aptamer) in the presence of antibiotic: strain bl-kan1; for Growth of bl-tob1 (tobramycin aptamer) in the presence of antibiotic: strain bl-tob1
Protocol: FIGS. 3A-3E are growth curves of E. coli expressing antibiotic aptamers. Overnight cultures of BL-21 cells transformed with plasmids expressing RSETA, tob1, tob3, kan1 or kan3 were diluted 100-fold into medium containing the indicated concentration of aminoglycoside antibiotic. Optical density (660 nm) was measured at fixed intervals over 8 hours of growth at 37° C.
As an initial test for the ability of these aptamers to function in vivo, we asked whether following expression in E. coli the aptamer would sequester the cognate antibiotic thereby conferring a specific drug-resistant phenotype. Toward this end, one or three copies of the kanamycin A (kan) or the tobramycin (tob) aptamer were cloned into the T7 RNA polymerase-driven expression vector PRSETA (Invitrogen), and transformed into a bacterial strain containing an IPTG-inducible T7 RNA polymerase. Bacterial strains were grown in liquid culture overnight and then diluted into antibiotic-containing medium. In the absence of drug, bacterial strains expressing no aptamer (bl-RSETA), the kanamycin aptamer (bl-kan1), or the tobramycin aptamer (bl-tob1) grew similarly (FIG. 3A). […] The partial-resistance of bl-kan1 to tobramycin (our unpublished data).

control RSETA mRNA = assay: Wheat germ in vitro translation of control RSETA mRNA; format: biochemical; settings: all concentrations tested, wheat germ extract
Protocol: (§6) FIG. 4. is a histogram showing percent translation of mRNA in a wheat germ in vitro translation system containing 0 (RSETA) or 3 copies of the tob aptamer cloned into the 5′ UTR of RSETA (tob3-RSETA) and 0, 30 or 60 μM tobramycin or kanamycin A. Protein products were analyzed by SDS-PAGE and quantitated by densitometry. For each transcript, translation in the absence of drug was set at 100%.
as §1
A test mRNA was constructed containing three copies of the tob aptamer inserted in the 5′ UTR of RSETA (tob3-RSETA). […]
In vitro transcription reactions contained 5 μg pRSETA (or RSET derivative), 0.5 mM m^7G(5′)G, 0.5 mM ATP, CTP, UTP, 0.05 mM GTP, 10 mM DTT and 40 U T7 RNA polymerase in 50 μl of a solution of 40 mM Tris-HCl pH 7.5, 6 mM MgCl2, 2 mM spermidine, 10 mM NaCl. […] Translation products were separated by electrophoresis on an 18% polyacrylamide gel, visualized by autoradiography, and quantitated by densitometry.

[8] = system: tob3-RSETA mRNA (three copies of the tob aptamer in the 5′ UTR); assay: Wheat germ in vitro translation of tob3-RSETA mRNA; format: biochemical; settings: 0, 30 or 60 μM drug, wheat germ extract
Protocol: as §6
A test mRNA was constructed containing three copies of the tob aptamer inserted in the 5′ UTR of RSETA (tob3-RSETA). In vitro translation reactions were performed in the presence of 0, 30 or 60 μM tobramycin or kanamycin A.
as §2, with “Reactions were incubated at 25{square root} C. for 15 minutes and terminated by addition of 2X sample loading buffer.” left out

Compound | In vitro translation of H2-RSETA mRNA [1] | Cell permeability [2] | Toxicity [3] | Expression of parental expression vector SVβ Gal [4] | Expression of the luciferase reporter [5] | Cell permeability relative to H33258 [2] | Reduction of β-galactosidase activity from SVH2β Gal [6] | Growth of bl-RSETA (no aptamer) in the presence of antibiotic ([7]; strain bl-RSETA) | Growth of bl-kan1 (kanamycin aptamer) in the presence of antibiotic [7] | Growth of bl-tob1 (tobramycin aptamer) in the presence of antibiotic [7] | In vitro translation of control RSETA mRNA (control RSETA mRNA) | In vitro translation of tob3-RSETA mRNA [8]
CN1CCN(c2ccc3[nH]c(-c4ccc5[nH]c(-c6ccc(O)cc6)nc5c4)nc3c2)CC1 [H33258] | inhibited in vitro translation of H2-RSETA | cell-permeable | relatively non-toxic |  |  |  |  |  |  |  |  | 
CCOc1ccc(-c2nc3ccc(-c4nc5ccc(N6CCN(C)CC6)cc5[nH]4)cc3[nH]2)cc1 [H33342] |  | cell-permeable | relatively non-toxic | not inhibited | not inhibited | approximately ten-fold more cell-permeable | greater than 90% |  |  |  |  | 
NC[C@H]1O[C@H](O[C@H]2[C@H](O)[C@@H](O[C@H]3O[C@H](CO)[C@@H](O)[C@H](N)[C@H]3O)[C@H](N)C[C@@H]2N)[C@H](O)[C@@H](O)[C@@H]1O [kanamycin A] |  |  |  |  |  |  |  | neglible | grew to saturation | neglible | unaffected | not inhibited
NC[C@H]1O[C@H](O[C@H]2[C@H](O)[C@@H](O[C@H]3O[C@H](CO)[C@@H](O)[C@H](N)[C@H]3O)[C@H](N)C[C@@H]2N)[C@H](N)C[C@@H]1O [tobramycin] |  |  |  |  |  |  |  |  | grew to a sub-saturating level | grew to saturation | unaffected | inhibited in vitro translation of the tob3-RSETA mRNA in a dose-dependent fashion
